This is an account of results in patent US20200352991A1, “POLYMER FILMS WITH ANTIMICROBIAL AGENTS” (The Trustees of Columbia University in the City of New York, priority 2017, published 2020).

Structures are written as SMILES.

For one assay, the system named is S. aureus. Briefly: Rapid kill test, 15 second time kill. The class given is cell-based. The note with it: 100 ul of 104 S. aureus culture, 15 second time kill.
Assay [1] concerns P. aeruginosa (ATCC 15442). In words: Zone of inhibition test of coated endotracheal tubes, modified Kirby-Bauer method. The class given is cell-based. As to conditions: coated endotracheal tube segments, 24 hours, ETT diameter (10 mm) is included.
Procedure: Efficacy of the coated tubes was evaluated by zone of inhibition test against P. aeruginosa (ATCC 15442) after 24 hours.
Method: The anti-microbial efficacy of the coated endotracheal tube (ETT) was evaluated by zone of inhibition test against P. aeruginosa (ATCC 15442) according to the modified Kirby-Bauer method. Trypticase soy agar (TSA) plates were seeded with 0.3 mL of overnight grown bacterial culture diluted to 107 colony forming units (CFU) per mL.
Antimicrobial coated ETTs were cut into 0.5 cm segments and embedded vertically into the agar plate. Uncoated ETT segments were used as control. After 24 hours of incubation at 37° C., the diameters of zones of inhibition around the ETT segments, including the diameters of the ETT, were measured.

In the assay with S. aureus, `[H]/N=C(\N/C(=N/[H])NCCCCCCNC(=N)NC(=N)Nc1ccc(Cl)cc1)Nc1ccc(Cl)cc1` [Chlorhexidine (CHX, 0.3%), Chlorhexidine] came in with a Log10 reduction of 4.51 Log10. Also, the “Zone of inhibition against P. aeruginosa” value in assay [1] is 20 mm.
`CC(=O)N[C@@H](CS)C(=O)O` [N-acetyl cystein (NAC, 1%), N-acetyl cystein] registered a Log10 reduction in the assay with S. aureus of 0.34 Log10. The “Zone of inhibition against P. aeruginosa” value in assay [1] is 0 mm.
